Read-outs that look alike come from different tables or passages of the source.
What was measured:
[1] = target: 6×HIS-tankyrase 1 (1091-1325) (Homo sapiens (Human), UniProt O95271); experiment: biochemical; assay type: biochemical; details: 400 nM NAD, 60 minutes at room temperature, read-out: TNKS1 IP IC50
[2] = tested on: total β-catenin in SW480 colorectal cells; experiment: cells; assay type: cell-based; details: Homo sapiens
In short: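 SW480 cells in growth medium (MEM alpha, 10% heat-inactivated FBS, 10 mM HEPES) treated with a 10-point, 3-fold dilution series of TNKS inhibitor for 40–48 h at 37 °C. Lysates run on an MSD sandwich immunoassay for total β-catenin, read by electrochemiluminescence.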

[3] = tested on: Axin2 in SW480 cells; experiment: cells; assay type: cell-based; details: Homo sapiens, read-out: Axin2 384 IF EC50 IP
In short: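 SW480 cells treated 24 h at 37° C (0.5% DMSO final), fixed/permeabilized, immunostained for Axin2. ArrayScan imaging quantified ring-spot intensity; Axin2 accumulation expressed as percent of control, EC50 from concentration-response.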

[4] = SW480 cells, 40 to 48 hours, top concentration 10 μM, read-out: SW480-Total β-Catenin IC50 IP
[5] = SW480, 24 h, SW480 cells, 24 hours

6×HIS-tankyrase 1 (1091-1325), sequence (O95271 1091-1325): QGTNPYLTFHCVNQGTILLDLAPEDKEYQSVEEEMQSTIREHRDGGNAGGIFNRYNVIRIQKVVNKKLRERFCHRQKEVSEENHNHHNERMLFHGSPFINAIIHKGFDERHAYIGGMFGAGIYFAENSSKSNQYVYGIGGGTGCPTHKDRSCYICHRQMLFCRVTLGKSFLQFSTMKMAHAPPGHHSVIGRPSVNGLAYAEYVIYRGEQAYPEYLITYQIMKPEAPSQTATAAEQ

IC50 ([2]; SW480, read-out: SW480-Total β-Catenin IC50 IP)	EC50 ([3]; SW480, 24 h)	Structure (SMILES)	IC50 ([1]; […] enzyme)	IC50 [2, 4]	EC50 [3, 5]	IC50 ([1]; 0.25 nM enzyme)	EC50 ([3]; SW480 cells, 24 hours)
–	–	CC1(C)OC(=O)N(C2CC=C(c3cnc(N)c(-c4ncccn4)c3)CC2)C1c1ccccc1 (stereo not drawn) [Example 131, 3-(4-(6-amino-5-(pyrimidin-2-yl)pyridin-3-yl)cyclohex-3-en-1-yl)-5,5-dimethyl-4-phenyloxazolidin-2-one]	16 nM	362 nM	1030 nM	–	–
–	–	CC1(C)OC(=O)N(c2ccc3c(c2)CCN(c2cccc4cccnc24)C3=O)[C@H]1c1ccccc1 [Example 63, (S)-5,5-dimethyl-3-(1-oxo-2-(quinolin-8-yl)-1,2,3,4-tetrahydroisoquinolin-6-yl)-4-phenyloxazolidin-2-one]	7050 nM	> 10000 nM	> 25000 nM	–	–
> 10000 nM	> 25000 nM	CC1(C)OC(=O)N([C@H]2CC[C@H](c3cc(C4=NCCCN4)c[nH]c3=O)CC2)[C@H]1c1ccccc1 [Example 130, (S)-5,5-dimethyl-3-((1r,4S)-4-(2-oxo-5-(1,4,5,6-tetrahydropyrimidin-2-yl)-1,2-dihydropyridin-3-yl)cyclohexyl)-4-phenyloxazolidin-2-one]	783 nM	–	–	–	–
–	–	CC1(C)OC(=O)N([C@H]2CC[C@H](c3cnc(N)c(Nc4ncccn4)c3)CC2)[C@@H]1c1ccccc1 [Example 13, (S)-3-((1r,4S)-4-(6-Amino-5-(pyrimidin-2-ylamino)pyridin-3-yl)cyclohexyl)-5,5-dimethyl-4-phenyloxazolidin-2-one]	2060 nM	> 10000 nM	> 25000 nM	–	–
–	–	CC1(C)OC(=O)N(c2ccc(-n3c(=O)[nH]c4cnccc43)cc2)[C@H]1c1ccccc1 [Example 16, (S)-5,5-dimethyl-3-(4-(2-oxo-2,3-dihydro-1H-imidazo[4,5-c]pyridin-1-yl)phenyl)-4-phenyloxazolidin-2-one]	114 nM	2540 nM	8190 nM	–	–
–	–	CC1(C)OC(=O)N(c2ccc(-c3cc(-c4ncccn4)ncc3F)cc2)[C@H]1c1ccccc1 [Example 129, (S)-3-(4-(5-fluoro-2-(pyrimidin-2-yl)pyridin-4-yl)phenyl)-5,5-dimethyl-4-phenyloxazolidin-2-one]	1830 nM	> 10000 nM	> 25000 nM	–	–
–	–	CC1(C)OC(=O)N(c2ccc(-n3cc(-c4ncccn4)ccc3=O)cc2)[C@H]1c1ccccc1 [Example 127, (S)-5,5-dimethyl-3-(4-(2-oxo-5-(pyrimidin-2-yl)pyridin-1(2H)-yl)phenyl)-4-phenyloxazolidin-2-one]	280 nM	1100 nM	6270 nM	–	–
–	–	CC1(C)OC(=O)N(c2ccc(-c3cc(-c4nccc(C#N)n4)c[nH]c3=O)cc2)[C@H]1c1ccccc1 [Example 120, (S)-2-(5-(4-(5,5-dimethyl-2-oxo-4-phenyloxazolidin-3-yl)phenyl)-6-oxo-1,6-dihydropyridin-3-yl)pyrimidine-4-carbonitrile]	75.8 nM	2360 nM	825 nM	–	–
–	–	CC1(C)OC(=O)N(c2ccc(-n3nnc4ccccc43)cc2)[C@H]1c1ccccc1 [Example 69, (S)-3-(4-(1H-benzo[d][1,2,3]triazol-1-yl)phenyl)-5,5-dimethyl-4-phenyloxazolidin-2-one]	2100 nM	> 10000 nM	> 25000 nM	–	–
–	–	CC1(C)OC(=O)N([C@H]2CC[C@H](c3cnc(N)c(C#N)c3)CC2)[C@H]1c1ccccc1 [Example 95, 2-amino-5-((1S,4r)-4-((S)-5,5-dimethyl-2-oxo-4-phenyloxazolidin-3-yl)cyclohexyl)nicotinonitrile]	6.98 nM	468 nM	474 nM	–	–
–	–	COc1ccc(C2N(c3ccc(C(=O)Nc4cccc5cccnc45)cc3)C(=O)OC2(C)C)cc1 (racemic) [Example 111, (+/−)-(R/S)-4-(4-(4-methoxyphenyl)-5,5-dimethyl-2-oxooxazolidin-3-yl)-N-(quinolin-8-yl)benzamide]	–	2440 nM	7260 nM	631 nM	–
–	–	CC1(C)OC(=O)N([C@H]2CC[C@H](c3c[nH]c(=O)c(-c4ncccn4)c3)CC2)[C@H]1c1ccccc1 [Example 97, (S)-5,5-Dimethyl-3-((1r,4S)-4-(6-oxo-5-(pyrimidin-2-yl)-1,6-dihydropyridin-3-yl)cyclohexyl)-4-phenyloxazolidin-2-one]	267 nM	4430 nM	> 25000 nM	–	–
–	–	CC1(C)OC(=O)N(c2ccc(-c3cc4ccncc4[nH]c3=O)cc2)[C@H]1c1ccccc1 [Example 88, (S)-5,5-dimethyl-3-(4-(2-oxo-1,2-dihydro-1,7-naphthyridin-3-yl)phenyl)-4-phenyloxazolidin-2-one]	11.8 nM	473 nM	285 nM	–	–
–	–	CC1(C)OC(=O)N([C@H]2CC[C@H](N3Cc4cc(C#N)ccc4NC3=O)CC2)[C@H]1c1ccccc1 [Example 62, 3-((1S,4r)-4-((S)-5,5-dimethyl-2-oxo-4-phenyloxazolidin-3-yl)cyclohexyl)-2-oxo-1,2,3,4-tetrahydroquinazoline-6-carbonitrile]	7.63 nM	438 nM	147 nM	–	–
–	–	COc1ccc([C@@H]2N(c3ccc(C(=O)Nc4cccc5cccnc45)cc3)C(=O)OC2(C)C)cc1 [Example 113, (S)-4-(4-(4-methoxyphenyl)-5,5-dimethyl-2-oxooxazolidin-3-yl)-N-(quinolin-8-yl)benzamide]	130 nM	2110 nM	5220 nM	–	–
–	–	CC1(C)OC(=O)N([C@H]2CC[C@H](N3C(=O)C(F)(F)c4ccccc43)CC2)[C@H]1c1ccccc1 [Example 48, (S)-3-((1s,4R)-4-(3,3-difluoro-2-oxoindolin-1-yl)cyclohexyl)-5,5-dimethyl-4-phenyloxazolidin-2-one]	617 nM	> 10000 nM	> 25000 nM	–	–
–	–	CC1(C)OC(=O)N(c2ccc(C(=O)Nc3cccc4cccnc34)cc2)C1c1ccccc1F (stereo not drawn) [Example 42, (R+S) 4-(4-(2-fluorophenyl)-5,5-dimethyl-2-oxooxazolidin-3-yl)-N-(quinolin-8-yl)benzamide]	263 nM	4870 nM	9400 nM	–	–
–	–	CC1(C)OC(=O)N([C@H]2CC[C@H](NC(=O)n3ccc4cccnc43)CC2)[C@H]1c1ccccc1 [Example 58, N-(trans-4-((4S)-5,5-dimethyl-2-oxo-4-phenyl-1,3-oxazolidin-3-yl)cyclohexyl)-1H-pyrrolo[2,3-b]pyridine-1-carboxamide]	7.46 nM	979 nM	828 nM	–	–
–	–	CC1(C)OC(=O)N([C@H]2CC[C@@H](c3cnc(N)c(C4=NCCCN4)c3)CC2)[C@H]1c1ccccc1 [Example 76, (S)-3-((1s,4R)-4-(6-amino-5-(1,4,5,6-tetrahydropyrimidin-2-yl)pyridin-3-yl)cyclohexyl)-5,5-dimethyl-4-phenyloxazolidin-2-one]	9840 nM	> 10000 nM	> 25000 nM	–	–
–	–	COc1cccc([C@H]2N(c3ccc(C(=O)Nc4cccc5cccnc45)cc3)C(=O)OC2(C)C)c1 [Example 106, (R)-4-(4-(3-Methoxyphenyl)-5,5-dimethyl-2-oxooxazolidin-3-yl)-N-(quinolin-8-yl)benzamide]	1880 nM	6650 nM	> 25000 nM	–	–
–	–	CC1(C)OC(=O)N(c2ccc(-n3c(=O)oc4ccccc43)cc2)[C@H]1c1ccccc1 [Example 17, (S)-3-(4-(5,5-dimethyl-2-oxo-4-phenyloxazolidin-3-yl)phenyl)benzo[d]oxazol-2(3H)-one]	2820 nM	> 10000 nM	> 25000 nM	–	–
–	–	CC1(C)OC(=O)N(c2ccc(-c3cc(-c4ccccn4)c[nH]c3=O)cc2)[C@H]1c1ccccc1 [Example 115, (S)-5,5-dimethyl-3-(4-(6′-oxo-1′,6′-dihydro-[2,3′-bipyridin]-5′-yl)phenyl)-4-phenyloxazolidin-2-one]	95.3 nM	1010 nM	4380 nM	–	–
–	–	CC1(c2ccccc2)CN([C@H]2CC[C@H](n3c(=O)[nH]c4cnccc43)CC2)C(=O)O1 (stereo partly drawn) [Example 89, (R+S)-5-methyl-3-((1r,4R)-4-(2-oxo-2,3-dihydro-1H-imidazo[4,5-c]pyridin-1-yl)cyclohexyl)-5-phenyloxazolidin-2-one]	17.2 nM	3440 nM	7030 nM	–	–
–	–	CC1(C)OC(=O)N(c2ccc(C(=O)Nc3cccc4cccnc34)cc2)[C@H]1c1ccc(F)cc1 [Example 2, (S)-4-(4-(4-fluorophenyl)-5,5-dimethyl-2-oxooxazolidin-3-yl)-N-(quinolin-8-yl)benzamide]	307 nM	1960 nM	5480 nM	–	–
–	–	CC1(C)OC(=O)N(c2ccc(-c3cc(-c4cccnc4)c[nH]c3=O)cc2)[C@H]1c1ccccc1 [Example 118, (S)-5,5-dimethyl-3-(4-(6-oxo-1,6-dihydro-[3,3′-bipyridin]-5-yl)phenyl)-4-phenyloxazolidin-2-one]	150 nM	> 10000 nM	> 25000 nM	–	–
–	–	CCC1(CC)OC(=O)N(c2ccc(C(=O)Nc3cccc4cccnc34)cc2)[C@H]1c1ccccc1 [Example 43, (S)-4-(5,5-diethyl-2-oxo-4-phenyloxazolidin-3-yl)-N-(quinolin-8-yl)benzamide]	786 nM	> 10000 nM	–	–	> 25000 nM
